From patent US11472846B2, “Compositions and methods for treating diseases by inhibiting exosome release” (priority 2016, dated 2022)
Read-outs that look alike come from different tables or passages of the source.

Legend:
Format in all cases: cell-based, human
[1] = tested on: MDA-MB-231 breast cancer cells; assay: Exosome release by acetylcholinesterase (AchE) assay, MDA-MB-231; details: MDA-MB-231 cells, five-day treatment
Description: (§1) 1-6. Exosome isolation and purification. Exosomes were isolated from breast cancer cells by differential centrifugation as previously described (Ali SA. et al., 2010). Untreated tumor cells were used as a control. Briefly, the above treated and untreated cell culture supernatants were centrifuged at 400×g for 10 minutes. The supernatants were transferred to a clear tube and centrifuged at 10,000×g for 30 minutes. The supernatants from the second spin were ultracentrifuged at 200,000×g for 2 hours to pellet exosomes. Finally, the exosome pellets were re-suspended with PBS and stored at 4° C. until used for analysis.
(§2) 1-7. Exosome characterization by acetylcholinesterase (AchE) assay. Purified exosomes were quantitated by measurement of AchE as described (Ellman et al., 1961). Briefly, a 100 mM dithibionitrobenzoic (DTNB) solution was prepared for use as a stock color indicator, and a 28.9 mg/mL acetylthiocholine iodide in PBS solution was prepared as a stock substrate. The stock substrate stock can be stored at −20° C. up to one month, while the color indicator can be stored at 4° C. for two weeks. A working solution was prepared by mixing 10 mL of PBS with 200 μL of Substrate and 500 μl of DTNB. 50 μL of each exosome sample was transferred to 96 well microtitre plates, and a standard curve was prepared using AchE from 0.98 mU/mL to 2000 mU/mL. After 50 μL of standards were added into separate wells, 200 μL of the working solution was added to all wells. After 20 min incubation, AchE activity was measured at 450 nm using a SpectroMax M5 fluorimeter.
(§3) 7-5. Exosome isolation and purification. Exosomes were isolated from breast cancer cells and leukemia cells using the ExoQuick-TC Exosome Precipitation Kit (System Biosciencences [SBI], Mountain View Calif.) or the miRCURY Exosome Isolation Kit (EXIQON, Woburn, Mass.) according to the manufacturer's instructions. Untreated tumor cells were used as a control. Briefly, treated and untreated cell culture supernatants (10 mL) were centrifuged at 3000×g for 15 minutes. The resulting supernatants were transferred to a clear tube, 2 mL of ExoQuick-TC buffer was added, mixed and incubated overnight at 4° C. Following the incubation, the sample contents were centrifuged at 1500×g for 30 minutes, the supernatants were aspirated off, the pellets were centrifuged at 1500×g for 5 minutes and any further traces of supernatant were removed (SBI). Alternatively, treated and untreated cell culture supernatants were centrifuged at 10,000×g for 5 minutes to remove cell debris, supernatants (10 ml) were transferred into new tubes, and 4 mL of precipitation buffer (EXIQON) was added, and the contents were mixed and incubated at 4° C. overnight. Following the incubation, the sample contents were centrifuged at 10,000×g for 30 minutes (EXIQON). Exosome-containing pellets were re-suspended in PBS and stored at 4° C. or −80° C.
(§4) 7-6. Exosome characterization by acetylcholinesterase (AchE) assay. Purified exosomes were quantitated by measurement of AchE as previously described (Huang et al., Oncotarget, 2017. 8(7): pp. 11302-11315). Briefly, 100 mM dithibionitrobenzoic (DTNB) was prepared as a stock color indicator, and prepared a stock substrate containing 28.9 mg/mL of acetylthiocholine iodide in PBS. Substrate stock can be stored at −20° C. up to one month; the stock color indicator can be stored at 4° C. for two weeks. A working solution was prepared by mixing 10 mL of PBS with 200 μL of substrate and 500 μl of DTNB. 50 μL of each exosome sample was transferred to a 96 well microtitre plate, and a standard curve for AchE concentrations was prepared using AchE from 0.98 mU/mL to 2000 mU/mL. After 50 μL of standards were added into separate wells, 200 μL of the working solution was added to each well. After a 20 min incubation, AchE activity was measured at 450 nm using a SpectroMax M5 fluorometer (FIG. 11).

[2] = tested on: MCF-7 breast cancer cells; assay: Exosome release by acetylcholinesterase (AchE) assay, MCF-7; details: MCF-7 cells, five-day treatment
Description: as §1, §2, §3, §4

MCF-7 cells = assay: TUNEL apoptosis assay, MCF-7; details: 48 hours, MKT-077 500 nM/mL, DMA 300 μM/mL, Omeprazole 200 μM/mL, paclitaxel 1.6 uM/mL, cisplatin 2 mg/mL
Description: (§5) 7-8. Apoptosis assay by flow cytometry. For assessment of apoptosis, MCF-7 and MDA-MB-231 breast cancer cells and were seeded into 6-well plates at 4×10^5 cells per well and treated for 48 hours with 925 nM/mL of MKT-077 on MDA-MB-231 cells, 500 nM/mL of MKT-077 on MCF-7 cells, 337.5 nM/mL of MKT-077 on K562 cells, 300 μM/mL of DMA, 200 μM/mL of Omeprazole, 1.6 uM/mL of paclitaxel, 2 mg/mL of cisplatin, or combined treatment with either paclitaxel or cisplatin in combination with each of the three mortalin inhibitors. Apoptosis was determined using the TUNEL detection kit (Nexcelom, MA) and GUAVA easyCyte HT (EMD Millipore Corporation, Temecula, Calif.) system for fluorometric detection. (FIG. 13).

[3] = tested on: exosomes from MCF-7 cells; assay: Western blot of exosomal proteins (Alix, vimentin, mortalin), MCF-7; details: 48 hr treatment, vs negative controls
Description: (§6) 7-7. Protein analysis by Western blotting. Exosomes were isolated from cell culture supernatants as described above. Protein concentrations were determined by measuring absorbance at 280 nm (Nanodrop 2000). Cultured cells were treated with PEG-SMR-Clu, SMR-CPP peptides, MKT-077, Omeprazole or DMA at 37° C. for 48 hr. To evaluate mortalin, vimentin and exosome expression, Western blot analysis was performed using anti-mortalin (Grp-75), anti-Vimentin and anti-Alix antibodies, respectively (FIG. 12).
(§7) Exosomes and cell lysates were prepared by incubating 5-10 min at 95° C. in sample buffer. The lysates were subjected to SDS-PAGE under reducing conditions (150 mM DTT) in 4-20% Criterion™ TGX™ precast gels (BioRad, Hercules, Calif.) and then transferred onto a nitrocellulose membrane (Bio-Rad, Hercules, Calif.). Nitrocellulose membranes were blocked with 5% skim milk (MedSupply, Atlanta, Ga.) in TBS containing 0.05% Tween 20 (TBST) for 1 h at room temperature. The membranes were treated with anti-mortalin (Grp-75) mAb or anti-α-tubulin mAb for cell lysates (FIG. 15, Panels A and B) or with anti-Alix and anti-vimentin or anti-mortalin for exosomes (FIG. 12), followed by peroxidase-conjugated goat anti-mouse IgG. Bands were developed with an ECL chemiluminescent substrate (Santa Cruz Biotechnology, Santa Cruz, Calif.) and exposed to an ImageQuant LAS 4000 imaging system (GE Healthcare, Piscataway, N.J. 08854).

K562 exosomes = assay: Western blot of exosomal proteins (Alix, vimentin, mortalin), K562; details: K562 cells, 48 hr treatment
Description: as §6, §7

MDA-MB-231 cells = assay: TUNEL apoptosis assay, MDA-MB-231; details: 48 hours, MKT-077 925 nM/mL, DMA 300 μM/mL, Omeprazole 200 μM/mL, paclitaxel 1.6 uM/mL, cisplatin 2 mg/mL
Description: as §5

K562 cells = assay: TUNEL apoptosis assay, K562; details: 48 hours, MKT-077 337.5 nM/mL, DMA 300 μM/mL, Omeprazole 200 μM/mL, paclitaxel 1.6 uM/mL, cisplatin 2 mg/mL
Description: as §5

MDA-MB-231 exosomes = assay: Western blot of exosomal proteins (Alix, vimentin, mortalin), MDA-MB-231; details: MDA-MB-231 cells, 48 hr treatment
Description: as §6, §7

[4] = tested on: MCF-7 breast cancer cells; assay: MTT proliferation assay, MCF-7; details: MCF-7 cells
Description: (§8) 1-3. Viability and proliferation. Human breast cancer cell lines were seeded into 96-well plates (5000 cells/well) and treated for 24 hours with various concentrations of SMR peptides including PEG-SMRwt-Clu, PEG-SMRwt and PEG-SMRmut to determine IC50 (inhibition concentration). Cell proliferation was determined using the MTT assay (Molecular Devices, Sunnyvale, Calif.). Control experiments were performed with MTT treated cells alone and untreated cells, and on this basis, the incubation times of 24 hr and 48 hr were used for an MTT assay of peptide-treated cells (Stockerta JC. et al., 2012 and Riss TL. et al., 2015).
(§9) 7-4. Cell proliferation and cytotoxicity assay. Human breast cancer cell lines MCF-7, MDAMB-231, and leukemia K562 cells, and non-tumorigenic MCF-10A cells are seeded into 96-well plates (5000 cells/well) and treated for 24 hours with 0-1120 nM SMRwt-CPP or SMRmut-CPP (FIG. 10). Cell proliferation was determined using the MTT [3-(4,5-dimethylthiazol-2-yl)-2,5-diphenyltetrazolium bromide] dye assay by SpectraMax M5 Fluorescence Plate Reader (Molecular Devices. Sunnyvale, Calif.). Cell viability was estimated by the conversion of yellow MTT by mitochondrial dehydrogenases of living cells to purple formazon (MTT assay). Control experiments were performed with cells treated or untreated with MTT, and on this basis, an incubation time of 24 hours was used for MTT assays of peptide-treated cells (Huang, M. B., et al., Oncotarget, 2017. 8(7): pp. 11302-11315.). Statistical significance of results was determined from three independent experiments including triplet or quadruplet sets in each experiment.

[5] = tested on: MDA-MB-231 breast cancer cells; assay: MTT proliferation assay, MDA-MB-231; details: MDA-MB-231 cells
Description: as §8, §9

[6] = 24 hours, MTT, read-out: 50% inhibition of cell growth
[7] = 24 hours, read-out: SMR at IC50 concentration

Compound	apoptosis (TUNEL) (MCF-7 cells) [%]	average AChE concentration day 1 to 5 [1] [mU/mL]	Alix expression in exosomes [3]	Mortalin expression in exosomes [3]	Vimentin expression in exosomes [3]	Alix expression in exosomes (K562 exosomes)	Mortalin expression in exosomes (K562 exosomes)	Vimentin expression in exosomes (K562 exosomes)	average AChE concentration days 1 to 5 [2] [mU/mL]	apoptosis (TUNEL) (MDA-MB-231 cells) [%]	apoptosis (TUNEL) (K562 cells) [%]	Vimentin expression in exosomes (MDA-MB-231 exosomes)	also measured
SMRmut-CPP (AGFPVAAAGFPVGRKKRRQRRRPPQ) [SEQ ID NO: 41]													AChE initial increase on day 1 ([1]; day 1, mock 146.52): 141.47 mU/mL; AchE concentration on day 3 ([2]; day 3, mock 69.15): 66.05 mU/mL; AchE concentration, initial increase ([2]; days 1 and/or 2, mock 155.13): 150.06 mU/mL
CCn1c(=Cc2cccc[n+]2CC)sc(=C2Sc3ccccc3N2C)c1=O.[Cl-] [MKT-077, 1-Ethyl-2-[[3-ethyl-5-(3-methyl-2(3H)-benzothiazolylidene)-4-oxo-2-thiazolidinylidene]methyl]-pyridinium chloride]	90.1	29	significantly decreased	significantly decreased	significantly decreased	significantly decreased	significantly decreased	significantly	22	52.13	82.7	no significant change	Mortalin expression in exosomes (MDA-MB-231 exosomes): No significant change
N.N.[Cl][Pt][Cl] [cisplatin, reference compound]													experimentally determined IC50 dosage ([4]; data not shown): 3000 µg/mL; experimentally determined IC50 dosage ([5]; data not shown): 2000 µg/mL
CC(=O)O[C@H]1C(=O)[C@@]2(C)[C@H]([C@H](OC(=O)c3ccccc3)[C@]3(O)C[C@H](OC(=O)[C@H](O)[C@@H](NC(=O)c4ccccc4)c4ccccc4)C(C)=C1C3(C)C)[C@]1(OC(C)=O)CO[C@@H]1C[C@@H]2O [paclitaxel, reference compound]													IC50 ([4]; Homo sapiens, MCF7, data not shown, read-out: experimentally determined IC50 dosage): 1600 nM; IC50 ([5]; Homo sapiens, data not shown, read-out: experimentally determined IC50 dosage): 1600 nM
NXNVGFPVAAVGFPV (SEQ ID NO: 36) [PEG-SMRwt]													IC50 [4, 6]: 280 nM; IC50 [4, 7]: 280 nM; IC50 [5, 6]: 420 nM; IC50 [5, 7]: 420 nM
CN(C)c1nc(N)c(C(=O)NC(=N)N)nc1Cl [DMA, 5-(N,N-Dimethyl)amiloride]	11.83	37	not accompanied by significant reductions	no significant changes	significantly decreased	significantly decreased	significantly decreased	significantly	26	30.43	15.2	significantly decreased	
COc1ccc2[nH]c([S+]([O-])Cc3ncc(C)c(OC)c3C)nc2c1 (stereo not shown) [Omeprazole, 5-Methoxy-2-[[(4-methoxy-3,5-dimethyl-2-pyridinyl)methyl]sulfinyl]-1H-benzimidazole]	1.1	25	not accompanied by significant reductions	no significant changes	significantly decreased	significantly decreased	significantly decreased	significantly	26	3.0	6.1	no significant change	Mortalin expression in exosomes (MDA-MB-231 exosomes): No significant change
